Assay results published in PubChem BioAssay AID1117275 (Broad Institute, 2014).
Activity calls are given as the source filed them. The rule behind the calls is not given here.

Each molecule was assayed on orthopoxvirus-infected cells, imaging factories/early/late reporters (assay: orthopoxvirus gene expression and factory inhibitors, imaging, high MOI, single point, dry powder (AID 1117275)). Conditions: at 10 µM; active compounds read high.

SMILES	late gene expression activity score
Cc1ccc(-c2ccc(CN(C)C[C@@H]3Oc4cc(C#C[C@@H](C)O)ccc4S(=O)(=O)N([C@@H](C)CO)C[C@@H]3C)cc2)cc1	73
Cc1cccc(-c2ccc(CN(C)C[C@@H]3Oc4cc(C#C[C@@H](C)O)ccc4S(=O)(=O)N([C@@H](C)CO)C[C@@H]3C)cc2)c1	78
C[C@@H](O)C#Cc1ccc2c(c1)O[C@@H](CN(C)Cc1ccc(-c3ccccc3)cc1)[C@@H](C)CN([C@@H](C)CO)S2(=O)=O	17 (inactive)
C[C@@H](O)C#Cc1ccc2c(c1)O[C@@H](CN(C)Cc1ccc(-c3ccccc3Cl)cc1)[C@@H](C)CN([C@@H](C)CO)S2(=O)=O	71
Cc1ccccc1-c1ccc(CN(C)C[C@@H]2Oc3cc(C#C[C@@H](C)O)ccc3S(=O)(=O)N([C@@H](C)CO)C[C@@H]2C)cc1	67
C[C@@H](O)C#Cc1ccc2c(c1)O[C@@H](CN(C)S(=O)(=O)c1ccc(-c3ccccc3)cc1)[C@@H](C)CN([C@@H](C)CO)S2(=O)=O	86
